Test results published in ChEMBL document CHEMBL5154826, “Discovery of the Clinical Candidate MAK683: An EED-Directed, Allosteric, and Selective PRC2 Inhibitor for the Treatment of Advanced Malignancies” (J Med Chem, 2022).
Converted amounts (≈) assume the structure as drawn.

How the values were obtained:
[1] = Toxicity in Wistar Han rat assessed as histological changes in liver at 30 to 400 mg/kg/day, po for 15 days by Hematoxylin and eosin staining based microscopic analysis; format: organism-based; details: in vivo, 360 h, dose 30-400 mg/kg/day, time 15 day
[2] = molecular target: T1, Alpha-2C adrenergic receptor (Homo sapiens, UniProt P18825); experiment: Inhibition of alpha2c adrenergic receptor (unknown origin)
T1 sequence (P18825 whole entry): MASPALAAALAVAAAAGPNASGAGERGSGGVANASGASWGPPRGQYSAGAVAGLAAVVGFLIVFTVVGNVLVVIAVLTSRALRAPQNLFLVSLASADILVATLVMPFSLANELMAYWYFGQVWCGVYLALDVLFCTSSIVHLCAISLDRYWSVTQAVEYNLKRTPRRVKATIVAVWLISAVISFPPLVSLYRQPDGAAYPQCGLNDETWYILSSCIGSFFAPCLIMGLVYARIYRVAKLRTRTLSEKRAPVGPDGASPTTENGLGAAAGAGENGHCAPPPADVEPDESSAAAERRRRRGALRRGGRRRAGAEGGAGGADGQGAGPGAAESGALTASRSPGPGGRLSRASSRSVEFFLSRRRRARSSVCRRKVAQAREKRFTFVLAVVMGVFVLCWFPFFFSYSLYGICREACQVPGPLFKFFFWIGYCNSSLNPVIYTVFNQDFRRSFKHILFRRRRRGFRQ

[3] = Drug metabolism in bile duct cannulated Wistar Han rat assessed as unmodified compound recovery in bile at 3 mg/kg, iv after 8 hrs by LC-MS/MS analysis; format: ADME, organism-based; details: read-out: Drug metabolism
[4] = Drug metabolism in bile duct cannulated Wistar Han rat assessed as unmodified compound recovery in urine at 3 mg/kg, iv after 8 hrs by LC-MS/MS analysis; format: ADME, organism-based; details: read-out: Drug metabolism
[5] = Drug metabolism in human liver microsomes assessed as CYP3A4 mediated M3 metabolite formation at 1 uM preincuabted for 5 mins followed by NADPH addition and measured after 20 mins by LC-MS/MS analysis; format: ADME, Microsome; details: 25 min
[6] = Drug metabolism in rat liver microsomes assessed as CYP3A4 mediated M3 metabolite formation at 1 uM preincuabted for 5 mins followed by NADPH addition and measured after 20 mins by LC-MS/MS analysis; format: ADME, Microsome; details: 25 min
[7] = Drug metabolism in human liver hepatocytes assessed as CYP3A4 M3 metabolite formation at 1 uM preincuabted for 5 mins followed by NADPH addition and measured after 20 mins by LC-MS/MS analysis; format: ADME, cell-based, Hepatocyte
[8] = Drug metabolism in rat liver hepatocytes assessed as CYP3A4 M3 metabolite formation at 1 uM preincuabted for 5 mins followed by NADPH addition and measured after 20 mins by LC-MS/MS analysis; format: ADME, cell-based, Hepatocyte
[9] = Toxicity in Wistar Hannover rat assessed as degeneration of cortical adrenal gland at 30 to 400 mg/kg/day, po for 15 days by Hematoxylin and eosin staining based microscopic analysis; format: organism-based; details: in vivo, 360 h, DDE = dose-dependent effect, dose 30-400 mg/kg/day, time 15 day
[10] = Toxicity in Wistar Hannover rat assessed as infiltration of immune cells at 30 to 400 mg/kg/day, po for 15 days by Hematoxylin and eosin staining based microscopic analysis; format: organism-based; details: in vivo, 360 h, DDE = dose-dependent effect, dose 30-400 mg/kg/day, time 15 day
[11] = Toxicity in Wistar Han rat assessed as histological changes in lung at 30 to 400 mg/kg/day,po for 15 days by Hematoxylin and eosin staining based microscopic analysis; format: organism-based; details: in vivo, 360 h, dose 30-400 mg/kg/day, time 15 day
[12] = Toxicity in Wistar Han rat assessed as histological changes in kidney at 30 to 400 mg/kg/day, po for 15 days by Hematoxylin and eosin staining based microscopic analysis; format: organism-based; details: in vivo, 360 h, dose 30-400 mg/kg/day, time 15 day
[13] = Inhibition of PRC2 (unknown origin) assessed as reduction in H3K27 trimethylation using H3K27Me0 peptide (21 to 44 residues) as substrate by measuring SAH formation by LC-MS analysis; set-up: species or system Homo sapiens
[14] = tested on: KARPAS-422; experiment: Antiproliferative activity against human KARPAS-422 cells expressing EZH2 mutant assessed as inhibition of cell growth after 14 days by beckman coulter counting method; format: functional; details: Homo sapiens, KARPAS-422, 336 h; time 14 day
[15] = Lipophilicity, logD of the compound at pH 7.4 by LC with tandem MS analysis; format: physicochemical; details: buffer, read-out: logD
[16] = High throughput solubility of the compound at pH 6.8 after 16 to 24 hrs by MS/MS analysis; format: physicochemical; details: buffer, time 16-24 hrs
[17] = Permeability across apical to basolateral side in human Caco-2 cells at 10 uM incubated for 2 hrs by LC/MS/MS analysis; format: ADME, cell-based; details: Caco-2, read-out: permeability
[18] = Efflux ratio of apparent permeability across basolateral to apical side over apical to basolateral side in human Caco-2 cells at 10 uM incubated for 2 hrs by LC/MS/MS analysis; format: ADME, cell-based
[19] = Dose normalized AUC in Sprague-Dawley rat at 2 mg/kg, po; format: ADME, organism-based; details: in vivo
[20] = Terminal half life in Sprague-Dawley rat at 2 mg/kg, po; format: ADME, organism-based; details: in vivo, read-out: beta t1/2 (converted)
[21] = Oral bioavailability in Sprague-Dawley rat at 2 mg/kg; format: ADME, organism-based; details: in vivo
[22] = molecular target: Cytochrome P450 3A4 (Homo sapiens, UniProt P08684); experiment: Inhibition of CYP3A4 in human liver microsomes using midazolam as substrate incubated for 10 mins in presence of NADPH by LC-MS/MS analysis; format: ADME, Microsome
[23] = molecular target: Cytochrome P450 2C9 (Homo sapiens, UniProt P11712); experiment: Inhibition of CYP2C9 in human liver microsomes using diclofenac as substrate incubated for 10 mins in presence of NADPH by LC-MS/MS analysis; format: ADME, Microsome
[24] = molecular target: Cytochrome P450 2D6 (Homo sapiens, UniProt P10635); experiment: Inhibition of CYP2D6 in human liver microsomes using bufuralol as substrate incubated for 10 mins in presence of NADPH by LC-MS/MS analysis; format: ADME, Microsome
[25] = molecular target: 3',5'-cyclic-AMP phosphodiesterase 4D (Homo sapiens, UniProt Q08499); experiment: Inhibition of human Phosphodiesterase 4D
[26] = molecular target: T2, Alpha-2A adrenergic receptor (Homo sapiens, UniProt P08913); experiment: Antagonist activity against alpha2a adrenergic receptor (unknown origin); format: functional
T2 sequence (P08913 whole entry): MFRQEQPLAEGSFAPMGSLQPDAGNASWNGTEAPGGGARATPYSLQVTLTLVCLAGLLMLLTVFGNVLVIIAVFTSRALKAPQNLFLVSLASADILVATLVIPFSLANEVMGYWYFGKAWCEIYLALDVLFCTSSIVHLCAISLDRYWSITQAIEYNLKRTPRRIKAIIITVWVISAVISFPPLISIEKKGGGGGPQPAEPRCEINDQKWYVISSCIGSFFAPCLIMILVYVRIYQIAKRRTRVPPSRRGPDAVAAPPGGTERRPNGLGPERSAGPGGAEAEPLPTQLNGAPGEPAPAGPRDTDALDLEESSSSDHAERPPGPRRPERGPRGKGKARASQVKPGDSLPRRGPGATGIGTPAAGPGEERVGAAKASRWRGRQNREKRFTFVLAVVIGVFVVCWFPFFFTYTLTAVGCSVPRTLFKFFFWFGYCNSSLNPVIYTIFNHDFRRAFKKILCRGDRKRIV

[27] = cells; details: Homo sapiens, G-401, 48 h
Description: Inhibition of PRC2 in human G-401 cells assessed as H3K27 methylation status incubated for 48 hrs by ELISA method

Chain of Cytochrome P450 2D6 (P10635 whole entry): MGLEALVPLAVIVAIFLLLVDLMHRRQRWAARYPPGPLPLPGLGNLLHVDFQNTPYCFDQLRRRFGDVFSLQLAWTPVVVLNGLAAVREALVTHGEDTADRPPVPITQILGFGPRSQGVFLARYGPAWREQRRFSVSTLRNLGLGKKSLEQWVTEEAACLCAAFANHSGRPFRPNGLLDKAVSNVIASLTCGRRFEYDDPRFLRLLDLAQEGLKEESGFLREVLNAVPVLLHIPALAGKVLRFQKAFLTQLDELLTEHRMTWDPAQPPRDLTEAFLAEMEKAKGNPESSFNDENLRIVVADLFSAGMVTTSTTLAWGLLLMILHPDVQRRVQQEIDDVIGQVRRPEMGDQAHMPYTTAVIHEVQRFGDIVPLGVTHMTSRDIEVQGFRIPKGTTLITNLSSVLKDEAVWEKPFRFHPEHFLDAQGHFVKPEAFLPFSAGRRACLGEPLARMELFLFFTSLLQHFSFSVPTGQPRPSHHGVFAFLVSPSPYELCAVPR
Chain of Cytochrome P450 3A4 (P08684 whole entry): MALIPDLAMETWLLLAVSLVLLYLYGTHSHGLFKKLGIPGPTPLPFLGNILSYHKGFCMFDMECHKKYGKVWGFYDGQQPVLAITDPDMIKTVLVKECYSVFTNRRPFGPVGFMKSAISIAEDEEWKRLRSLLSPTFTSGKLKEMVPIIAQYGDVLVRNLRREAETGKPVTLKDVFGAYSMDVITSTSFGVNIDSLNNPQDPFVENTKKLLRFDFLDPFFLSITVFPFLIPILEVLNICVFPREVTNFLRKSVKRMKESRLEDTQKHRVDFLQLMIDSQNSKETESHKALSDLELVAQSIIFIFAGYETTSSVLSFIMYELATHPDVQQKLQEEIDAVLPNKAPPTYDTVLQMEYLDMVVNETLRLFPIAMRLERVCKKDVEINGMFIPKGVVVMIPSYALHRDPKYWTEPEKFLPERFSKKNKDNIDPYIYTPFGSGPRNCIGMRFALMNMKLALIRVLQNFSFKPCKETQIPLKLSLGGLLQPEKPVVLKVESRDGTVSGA
Chain of 3',5'-cyclic-AMP phosphodiesterase 4D (Q08499 whole entry): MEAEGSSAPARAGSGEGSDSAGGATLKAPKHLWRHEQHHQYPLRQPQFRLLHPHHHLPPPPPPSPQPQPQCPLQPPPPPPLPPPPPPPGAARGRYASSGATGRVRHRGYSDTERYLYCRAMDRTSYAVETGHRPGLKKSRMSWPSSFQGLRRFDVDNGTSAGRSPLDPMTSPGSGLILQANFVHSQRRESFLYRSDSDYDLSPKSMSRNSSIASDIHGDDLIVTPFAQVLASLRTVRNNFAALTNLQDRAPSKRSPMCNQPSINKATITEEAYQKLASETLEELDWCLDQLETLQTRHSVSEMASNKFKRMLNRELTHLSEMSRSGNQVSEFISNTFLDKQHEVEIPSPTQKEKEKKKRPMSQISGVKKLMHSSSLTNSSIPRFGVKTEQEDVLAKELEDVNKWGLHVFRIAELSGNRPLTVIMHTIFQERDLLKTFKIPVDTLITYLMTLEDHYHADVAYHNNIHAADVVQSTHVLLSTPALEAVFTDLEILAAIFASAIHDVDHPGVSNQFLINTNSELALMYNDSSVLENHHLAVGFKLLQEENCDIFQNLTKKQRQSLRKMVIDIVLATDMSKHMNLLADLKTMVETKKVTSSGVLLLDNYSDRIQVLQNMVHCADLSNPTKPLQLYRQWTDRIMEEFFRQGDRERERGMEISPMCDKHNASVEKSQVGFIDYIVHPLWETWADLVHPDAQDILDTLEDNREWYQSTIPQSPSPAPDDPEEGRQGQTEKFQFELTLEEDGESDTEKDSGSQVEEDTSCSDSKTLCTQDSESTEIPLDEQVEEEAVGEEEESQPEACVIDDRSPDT
Chain of Cytochrome P450 2C9 (P11712 whole entry): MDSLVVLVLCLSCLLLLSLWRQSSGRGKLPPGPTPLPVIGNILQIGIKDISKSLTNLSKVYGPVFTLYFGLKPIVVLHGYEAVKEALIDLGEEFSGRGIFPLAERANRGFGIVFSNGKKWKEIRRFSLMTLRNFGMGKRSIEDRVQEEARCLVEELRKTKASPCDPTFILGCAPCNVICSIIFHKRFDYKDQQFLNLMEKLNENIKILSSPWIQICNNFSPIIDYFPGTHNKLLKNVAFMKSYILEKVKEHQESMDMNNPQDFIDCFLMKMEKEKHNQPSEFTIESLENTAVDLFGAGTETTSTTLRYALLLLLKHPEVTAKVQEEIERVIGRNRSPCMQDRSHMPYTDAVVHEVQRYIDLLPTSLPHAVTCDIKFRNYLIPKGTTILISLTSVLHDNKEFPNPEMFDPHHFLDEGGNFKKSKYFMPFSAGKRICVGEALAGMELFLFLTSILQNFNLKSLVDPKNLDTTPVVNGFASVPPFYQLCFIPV

IC50 [2]: 14 µM
dose excreted at 8 h [3]: 0.5%
dose excreted at 8 h [4]: 0.9%
Drug metabolism [5]: Metabolite_Detected
Drug metabolism [6]: Metabolite_Detected
Drug metabolism [7]: Metabolite_Detected
Drug metabolism [8]: Metabolite_Detected
IC50 [13]: 0.022 µM
GI50 [14]: 0.08 µM
logD [15]: 1.8
solubility [16]: 12 µM (≈ 4.43 µg/mL)
Papp A→B at 2 h, 10 µM [17]: 3 ×10⁻⁶ cm/s
efflux ratio at 2 h, 10 µM [18]: 7.6
AUC/dose [19]: 1948 nM·h
half-life [20]: 1.6 h
bioavailability [21]: 62%
IC50 [22]: > 50 µM
IC50 [23]: > 50 µM
IC50 [24]: > 50 µM
IC50 [25]: 20 µM
IC50 [26]: 15 µM
IC50 [27]: 0.22 µM
Compound: CS(=O)(=O)c1ccc(-c2cnc(NCc3ccco3)n3cnnc23)cc1
Activity [1]: Non-Toxic
Activity [9]: Dde
Activity [10]: Dde
Activity [11]: Non-Toxic
Activity [12]: Non-Toxic
